For orientation: IC50 means the point on the concentration scale where inhibition reaches its midpoint.

Some results are limits rather than exact numbers.

The assay addresses T1, γ-secretase, Aβ(1-42) production, SH-SY5Y neuroblastoma cells overexpressing SPA4CT (Homo sapiens, UniProt P49768).
T1 construct: Human SH-SY5Y neuroblastoma cells overexpressing the direct γ-secretase substrate SPA4CT; endogenous in cells; host or cells: human SH-SY5Y neuroblastoma cells stably overexpressing the substrate SPA4CT, induced with sodium butyrate
Kind of assay: Cell-Based γ-Secretase Assay, Aβ(42) detection. To be noted: overnight incubation, read-out: IC50 values for Aβ(1-42) inhibition. As for the experimental part: Cell-Based γ-Secretase Assay
Human SH-SY5Y neuroblastoma cells overexpressing the direct γ-secretase substrate SPA4CT were induced with sodium butyrate (10 mM) for 4 hours prior to plating. Cells were plated at 35,000 cells/well/100 μl in 96-well plates in phenol red-free MEM/10% FBS, 50 mM HEPES, 1% Glutamine and incubated for 2 hrs at 37° C., 5% CO2.
Compounds for testing were diluted into Me2SO to give a ten point dose-response curve. Typically 10 μl of these diluted compounds in Me2SO were further diluted into 182 μl dilution buffer (phenol red-free MEM/10% FBS, 50 mM HEPES, 1% Glutamine) and 10 μl of each dilution was added to the cells in 96-well plates (yielding a final Me2SO concentration of 0.5%). Appropriate vehicle and inhibitor controls were used to determine the window of the assay.
After incubation overnight at 37° C., 5% CO2, 25 μl and 50 μl media were transferred into a standard Meso avidin-coated 96-well plate for detection of Aβ(40) and Aβ(42) peptides, respectively. 25 μl Meso Assay buffer (PBS, 2% BSA, 0.2% Tween-20) was added to the Aβ(40) wells followed by the addition of 25 μl of the respective antibody premixes to the wells:
Aβ(42) premix: 1 μg/ml ruthenylated G2-11 antibody, 4 μg/ml biotinylated 4G8 antibody diluted in Origen buffer
(Biotinylated 4G8 antibody supplied by Signet Pathology Ltd; G2-10 and G2-11 antibodies supplied by Chemicon)
After overnight incubation of the assay plates on a shaker at 4° C., the Meso Scale Sector 6000 Imager was calibrated according to the manufacturer's instructions. After washing the plates 3 times with 150 μl of PBS per well, 150 μl Meso Scale Discovery read buffer was added to each well and the plates were read on the Sector 6000 Imager according to the manufacturer's instructions.
LD50 and IC50 values for inhibition of Aβ(40) and Aβ(42) were calculated by nonlinear regression fit analysis using the appropriate software (eg. Excel fit). The total signal and the background were defined by the corresponding Me2SO and inhibitor controls.
Consider `Cc1ccc(C(C)(C)C)cc1Nc1nc(N2CCC(n3ccnn3)CC2)ncc1F` [Example 1, N-(5-tert-butyl-2-methylphenyl)-5-fluoro-2-[4-(1H-1,2,3-triazol-1-yl)piperidin-1-yl]pyrimidin-4-amine], for which the concentration for half-maximal inhibition (IC50) fell in the range of 3 to 6 µM.

With `CCN(CC)c1ccc(Nc2ccnc(N3CCC4(CCCN4)CC3)n2)c(C)c1` [Example 4, N1-[2-(1,8-diazaspiro[4.5]dec-8-yl)pyrimidin-4-yl]-N4,N4-diethyl-2-methylbenzene-1,4-diamine], the half-inhibitory concentration (IC50) lay in the range of 3 to 6 µM.

As to `CCN(CC)c1ccc(Nc2ccnc(N3CCC(n4ccnc4)CC3)n2)c(C)c1` [Example 7, N4,N4-diethyl-N1-{2-[4-(1H-imidazol-1-yl)piperidin-1-yl]pyrimidin-4-yl}-2-methylbenzene-1,4-diamine], the IC50 lay within 3 to 6 µM.

For the compound `CCN(CC)c1ccc(Nc2ccnc(N3CCC(n4ccnn4)CC3)n2)c(C)c1` [Example 8, N4,N4-diethyl-2-methyl-N1-{2-[4-(1H-1,2,3-triazol-1-yl)piperidin-1-yl]pyrimidin-4-yl}benzene-1,4-diamine], the half-inhibitory concentration (IC50) lay within 3 to 6 µM.

In the case of `CCOc1cc(C)c(Nc2ccnc(N3CCC(n4ccnn4)CC3)n2)cc1C(C)C` [Example 10, N-(4-ethoxy-5-isopropyl-2-methylphenyl)-2-[4-(1H-1,2,3-triazol-1-yl)piperidin-1-yl]pyrimidin-4-amine], the IC50 lay within 0.5 to 1.5 µM.

For the compound `CCOc1cc(C)c(Nc2ccnc(N3CCC(n4ccnc4)CC3)n2)cc1C(C)C` [Example 11, N-(4-ethoxy-5-isopropyl-2-methylphenyl)-2-[4-(1H-1,2,3-imidazol-1-yl)piperidin-1-yl]pyrimidin-4-amine], the half-maximal inhibitory concentration (IC50) is less than 0.5 µM.

In the case of `Cc1ccc(C(C)C)cc1Nc1ccnc(N2CCC(n3ccnn3)CC2)n1` [Example 12, N-(5-isopropyl-2-methylphenyl)-2-[4-(1H-1,2,3-triazol-1-yl)piperidin-1-yl]pyrimidin-4-amine], the half-inhibitory concentration (IC50) lay in the range of 3 to 6 µM.

On to `CCN(CC)c1ccc(Nc2ccnc(N3CCC(c4nnc(-c5ccccc5)o4)CC3)n2)c(C)c1` [Example 14, N4,N4-diethyl-2-methyl-N1-{2-[4-(5-phenyl-1,3,4-oxadiazol-2-yl)piperidin-1-yl]pyrimidin-4-yl}benzene-1,4-diamine], for which the IC50 is 1.5 to 3 µM.

As to `Cc1ccc(C(C)(C)C)cc1Nc1ccnc(N2CCC(n3ccnn3)CC2)n1` [Example 15, N-(5-tert-butyl-2-methylphenyl)-2-[4-(1H-1,2,3-triazol-1-yl)piperidin-1-yl]pyrimidin-4-amine], the IC50 was 0.5 to 1.5 µM.

For `Cc1ccc(C(C)(C)C)cc1Nc1ccnc(N2CCC(n3ccnc3)CC2)n1` [Example 16, N-(5-tert-butyl-2-methylphenyl)-2-[4-(1H-imidazol-1-yl)piperidin-1-yl]pyrimidin-4-amine], the 50% inhibitory concentration (IC50) lay within 0.5 to 1.5 µM.

On to `Cc1ccc(C(C)(C)C)cc1Nc1nc(N2CCC(n3ccnc3)CC2)ncc1F` [Example 17, N-(5-tert-butyl-2-methylphenyl)-5-fluoro-2-[4-(1H-imidazol-1-yl)piperidin-1-yl]pyrimidin-4-amine], for which the IC50 lay in the range of 3 to 6 µM.

Consider `Cc1ccc(C(C)(C)C)cc1Nc1cc(S(C)(=O)=O)nc(N2CCC(n3ccnc3)CC2)n1` [Example 18, N-(5-tert-butyl-2-methylphenyl)-2-[4-(1H-imidazol-1-yl)piperidin-1-yl]-6-(methylsulfonyl)pyrimidin-4-amine], for which the IC50 lay within 3 to 6 µM.

Consider `CCOc1cc(C)c(Nc2nc(N3CCC(n4ccnn4)CC3)ncc2Cl)cc1C(C)C` [Example 19, 5-chloro-N-(4-ethoxy-5-isopropyl-2-methylphenyl)-2-[4-(1H-1,2,3-triazol-1-yl)piperidin-1-yl]pyrimidin-4-amine], for which the IC50 is 1.5 to 3 µM.

Take `CCOc1cc(C)c(Nc2nc(N3CCC(n4ccnc4)CC3)ncc2Cl)cc1C(C)C` [Example 20, 5-chloro-N-(4-ethoxy-5-isopropyl-2-methylphenyl)-2-[4-(1H-imidazol-1-yl)piperidin-1-yl]pyrimidin-4-amine]: the half-maximal inhibitory concentration (IC50) fell in the range of 1.5 to 3 µM.

`CCOc1cc(C)c(Nc2nc(N3CCC(n4ccnn4)CC3)ncc2F)cc1C(C)C` [Example 21, N-(4-ethoxy-5-isopropyl-2-methylphenyl)-5-fluoro-2-[4-(1H-1,2,3-triazol-1-yl)piperidin-1-yl]pyrimidin-4-amine]: the IC50 lay within 0.5 to 1.5 µM.

Take `CCOc1cc(C)c(Nc2nc(N3CCC(n4ccnc4)CC3)ncc2F)cc1C(C)C` [Example 22, N-(4-ethoxy-5-isopropyl-2-methylphenyl)-5-fluoro-2-[4-(1H-imidazol-1-yl)piperidin-1-yl]pyrimidin-4-amine]: the half-inhibitory concentration (IC50) lay in the range of 0.5 to 1.5 µM.

Take `CCOc1cc(C)c(Nc2nc(N3CCC(n4cc(C)nn4)CC3)ncc2Cl)cc1C(C)C` [Example 23, 5-chloro-N-(4-ethoxy-5-isopropyl-2-methylphenyl)-2-[4-(4-methyl-1H-1,2,3-triazol-1-yl)piperidin-1-yl]pyrimidin-4-amine]: the IC50 is 1.5 to 3 µM.

With `CCOc1cc(C)c(Nc2cc(C(=O)OC)nc(N3CCC(n4ccnc4)CC3)n2)cc1C(C)C` [Example 24], the concentration for half-maximal inhibition (IC50) was less than 0.5 µM.

On to `CCOc1cc(C)c(Nc2cc(CO)nc(N3CCC(n4ccnc4)CC3)n2)cc1C(C)C` [Example 25, {6-[(4-ethoxy-5-isopropyl-2-methylphenyl)amino]-2-[4-(1H-imidazol-1-yl)piperidin-1-yl]pyrimidin-4-yl}methanol], for which the IC50 is less than 0.5 µM.
